In article PMC4413193, “3-[4-(1H-Indol-3-yl)-1,3-thiazol-2-yl]-1H-pyrrolo[2,3-b]pyridines, Nortopsentin Analogues with Antiproliferative Activity” (Marine Drugs, 2015):

Experiment: Solubility noted during NMR characterisation
Assay type: physicochemical
Details: NMR solvents (DMSO-d6 or CDCl3)
Experimental: All melting points were taken on a Büchi-Tottoly capillary apparatus. IR spectra were determined in bromoform with a Shimadzu FT/IR 8400S spectrophotometer. ^1H and ^13C NMR spectra were measured at 200 and 50.0 MHz, respectively, in dimethylsulfoxide (DMSO)-d6 or CDCl3 solution, using a Bruker Avance II series 200 MHz spectrometer. […] Column chromatography was performed with Merk silica gel 230–400 mesh ASTM or with Büchi Sepacor chromatography module (prepacked cartridge system). Elemental analyses (C, H, N) were within ±0.4% of theoretical values and were performed with a VARIO EL III elemental analyzer. Purity of all the tested compounds was greater than 98%, determined by HPLC as described below.

| solubility | Compound |
| --- | --- |
| poor solubility | Cn1cc(-c2csc(-c3c[nH]c4ncccc34)n2)c2cc(F)ccc21 [Compound 3a, 3-[4-(5-Fluoro-1-methyl-1H-indol-3-yl)-1,3-thiazol-2-yl]-1H-pyrrolo[2,3-b]pyridine] |
| poor solubility | Cn1cc(-c2csc(-c3cn(C)c4ncccc34)n2)c2cc(F)ccc21 [Compound 3b, 3-[4-(5-Fluoro-1-methyl-1H-indol-3-yl)-1,3-thiazol-2-yl]-1-methyl-1H-pyrrolo[2,3-b]pyridine] |
